In patent US11840528B2 (Hoffmann-La Roche Inc., priority 2018, dated 2023):

Assays:
h-GABA-A α5β3γ2 [1] = target: T1, h-GABA-A α5β3γ2 (Homo sapiens, UniProt P18507+P31644); test: [3H]flumazenil competition binding assay, membranes of HEK293 cells expressing GABAA receptors
Outline: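 Membranes from HEK293 cells transiently expressing human α5β3γ2 GABAA receptors, in Krebs-tris buffer pH 7.5, competed against [3H]flumazenil for 1 hour at 4° C to equilibrium. Bound radioactivity collected on GF/C filters and counted by liquid scintillation; Ki values are means of two determinations.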

h-GABA-A α5β3γ2 [2] = target: T1, h-GABA-A α5β3γ2; test: Two-electrode voltage clamp electrophysiology in Xenopus laevis oocytes expressing GABAA receptors, modulation of GABA EC20 current; format: cell-based; set-up: host or cells: Xenopus laevis oocytes micro-injected with RNA transcripts of the subunits
Outline: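 Human α5β3γ2 GABAA receptors were expressed in Xenopus oocytes by RNA injection, with γ2 RNA 5–10-fold higher, and recorded 3–5 days later by two-electrode voltage clamp at −80 mV at room temperature. The test compound, at about 30× its Ki, was co-applied during a second GABA EC20 pulse. Efficacy is the extremum of the point-by-point ratio to the first response, expressed as 100*(Fold increase−1).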

[3] = displacement of [3H]-Flumazenil 0.5 nM, HEK293 cells expressing human receptors, mean of two determinations, Table 1
[4] = % modulation of GABA EC20 = 100*(Fold increase-1), Table 1
[5] = test compound at approx. 30 fold its Ki, GABA at EC20, Table 1
[6] = reference compounds, % modulation of GABA EC20, Table 2

SMILES | Ki (h-GABA-A α5β3γ2 [1]; [3]) [nM] | Efficacy (GABA) % (h-GABA-A α5β3γ2 [2]; [4]) [%] | Fold increase h-GABA-A α5β3γ2 oocyte (h-GABA-A α5β3γ2 [2]; [5]) | Ki (h-GABA-A α5β3γ2 [1]; reference compounds, Table 2) [nM] | Efficacy (GABA) % (h-GABA-A α5β3γ2 [2]; [6]) [%] | Fold increase h-GABA-A α5β3γ2 oocyte (h-GABA-A α5β3γ2 [2]; reference compounds, Table 2)
Cc1ccc(-c2noc(CF)c2Cn2ncc(N3CC4(CCCCO4)C3)cc2=O)nn1 [Example 328, 2-((5-(fluoromethyl)-3-(6-methylpyridazin-3-yl)isoxazol-4-yl)methyl)-5-(5-oxa-2-azaspiro[3.5]nonan-2-yl)pyridazin-3(2H)-one] | 12.6 | 70 | 1.7 |  |  | 
Cc1onc(-c2ccc(Cl)nc2)c1Cn1ncc(N2CCC3(CCCCO3)CC2)cc1=O [Example 333, 2-[[3-(6-chloro-3-pyridyl)-5-methyl-isoxazol-4-yl]methyl]-5-(1-oxa-9-azaspiro[5.5]undecan-9-yl)pyridazin-3-one] | 41.4 | 190 | 2.9 |  |  | 
Cc1onc(-c2ccc(C(F)(F)F)nn2)c1Cn1ncc(N2CC3(CC[C@@H](F)CO3)C2)cc1=O [Example 334, (R)-5-(7-fluoro-5-oxa-2-azaspiro[3.5]nonan-2-yl)-2-((5-methyl-3-(6-(trifluoromethyl)pyridazin-3-yl)isoxazol-4-yl)methyl)pyridazin-3(2H)-one] | 5.9 | 105 | 2.05 |  |  | 
Cc1onc(-c2ccc(C(F)(F)F)nn2)c1Cn1ncc(N2CC3(CCCCO3)C2)cc1=O [Example 335, 2-((5-methyl-3-(6-(trifluoromethyl)pyridazin-3-yl)isoxazol-4-yl)methyl)-5-(5-oxa-2-azaspiro[3.5]nonan-2-yl)pyridazin-3(2H)-one] | 9.2 | 90 | 1.9 |  |  | 
Cc1onc(-c2ccccc2)c1COc1ccc(N2CCCC2)nn1 [RO-035, reference compound] |  |  |  | 10.5 | −35 | 0.65
Cc1onc(-c2ccccc2)c1COc1ccc(N2CCOCC2)nn1 [RO-036, reference compound] |  |  |  | 9.45 | −28 | 0.72
Cc1cc(C)n(-c2ccc(OCc3c(-c4ccccc4)noc3C)nn2)n1 [RO-039, reference compound] |  |  |  | 5.15 | −17 | 0.83
Cc1onc(-c2ccccc2)c1COc1ccc(C(=O)N2CCOCC2)nn1 [RO-096, reference compound] |  |  |  | 26 | −16 | 0.84
